Where a name gives a salt, the structure may show the parent alone.
Assays:
[1] = target: T1, human NPFFR1 (hNPFFR1) receptor (Homo sapiens, UniProt Q9GZQ6); experiment: Human NPFFR1 evaluation using BRET biosensors (antagonist IC50); assay type: cell-based; conditions: hNPFFR1 transiently over-expressed in HEK-293 T cells; BRET signal; stimulation by EC80 RFRP-3
T1 construct: expressed in transfected cells; host or cells: HEK-293 T cells, transient co-transfection with polyethylenimine
Method: Compounds of the present invention were tested successively for their agonist and antagonist activities on human NPFFR1 (hNPFFR1) receptor transiently over-expressed in HEK-293 T cells. Compounds exert agonist activity if, by themselves in absence of neuropeptide RFRP-3 (also named NPVF) they activate hNPFFR1; and they exert antagonist activity if they decrease the action of RFRP-3 on the receptor.
The assay used to measure compound activity is based on BRET (Bioluminescence Resonance Energy Transfer) biosensors and is designed to monitor the plasma membrane translocation of protein that interacts with specific Ga subunit. The specific effector (luciferase tagged: BRET donor) recruited at the membrane will be in close proximity to a plasma membrane anchor (GFP tagged: BRET acceptor) to induce a BRET signal. Biosensors are described in the patent application WO 2016/041093 A1 (Biosensors for monitoring biomolecule localization and trafficking in cells).
HEK-293 T cells are maintained in Dulbecco's Modified Eagle's Medium supplemented with 10% Foetal Calf Serum, 1% Penicillin/Streptomycin at 37° C./5% CO2.
Cells are co-transfected using polyethylenimine (25 kDa linear) with four DNA plasmids encoding: hNPFFR1, GαoB, a Gi family specific intracellular effector fused to luciferase (BRET donor), a plasma membrane effector fused to GFP (BRET acceptor). After transfection, cells are cultured for 48 h at 37° C./5% CO2.
Receptor activity is detected by changes in BRET signal.
On the day of the assay, cells are detached using trypsin 0.05%, resuspended in assay buffer (1.8 mM CaCl2, 1 mM MgCl2, 2.7 mM KCl, 137 mM NaCl, 0.4 mM NaH2PO4, 5.5 mM D-Glucose, 11.9 mM NaHCO3, 25 mM Hepes) and seeded in 384 well plate at a density of 20,000 cells per well. Then, plates are equilibrated 3.5 hours at 37° C. before adding compounds.
Compounds and luciferase substrate are added to the cells using an automated device (Freedom Evo®, Tecan) and BRET readings are collected on EnVision (PerkinElmer) with specific filters (410 nm BW 80 nm, 515 nm BW 30 nm).
Agonist and antagonist activities of compounds are consecutively evaluated on the same cell plate. Agonist activity is first measured after 10 minutes incubation with compound alone on the cells. Then, cells are stimulated by an EC80 RFRP-3 concentration and luminescence is recorded for additional 10 minutes. EC80 RFRP-3 concentration is the concentration giving 80% of the maximal RFRP-3 response. Agonist or antagonist activities are evaluated in comparison to basal signals evoked by assay buffer or EC80 RFRP-3 alone, respectively.
For IC50 determination, a dose-response test is performed using 20 concentrations (ranging over 6 logs) of each compound. Dose-response curves are fitted using the sigmoidal dose-response (variable slope) analysis in GraphPad Prism software (GraphPad Software) and IC50 of antagonist activity is calculated. Dose-response experiments are performed in duplicate, in two independent experiments.

T1 sequence (Q9GZQ6 whole entry): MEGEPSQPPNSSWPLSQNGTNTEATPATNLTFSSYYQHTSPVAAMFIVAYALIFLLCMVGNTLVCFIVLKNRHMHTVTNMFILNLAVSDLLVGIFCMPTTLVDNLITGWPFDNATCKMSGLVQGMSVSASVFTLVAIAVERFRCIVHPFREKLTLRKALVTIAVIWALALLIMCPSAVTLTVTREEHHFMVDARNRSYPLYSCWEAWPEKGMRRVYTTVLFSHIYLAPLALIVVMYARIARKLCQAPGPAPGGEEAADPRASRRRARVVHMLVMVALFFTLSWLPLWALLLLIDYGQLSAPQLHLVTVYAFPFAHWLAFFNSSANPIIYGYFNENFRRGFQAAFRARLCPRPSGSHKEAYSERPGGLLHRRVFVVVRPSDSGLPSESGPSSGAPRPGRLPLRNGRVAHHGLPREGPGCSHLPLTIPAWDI

Row | SMILES | melting point | IC50 [1]
1 | CCc1nc(N)ccc1-c1c(F)ccc2ccc(N(CC)C3CCCCC3)nc12.Cl | 160 to 210 °C | 
2 | CCc1nc(N)ccc1-c1c(F)ccc2ccc(N(CC)C(C)C)nc12.Cl | 214 to 229 °C | 
3 | CCc1nc(N)ccc1-c1cccc2ccc(C(=O)N(C)C)nc12 (as salt: hydrochloride) [Example 140, 8-(6-amino-2-ethylpyridin-3-yl)-N,N-dimethylquinoline-2-carboxamide] | 103 to 113 °C | 
4 | Cl.Nc1ccc(-c2cccc3cccnc23)c(F)n1 [Example 2, 6-Fluoro-5-quinolin-8-yl-pyridin-2-ylamine] | > 250 °C | > 1000 nM
5 | CCc1nc(N)ccc1-c1csc2cc(OC)ccc12 [Example 5, 6-Ethyl-5-(6-methoxybenzothiophen-3-yl)pyridin-2-amine] | 151 to 155 °C | > 1000 nM
6 | CCCc1nc(N)ccc1-c1csc2ccccc12.Cl [Example 7, 5-Benzo[b]thiophen-3-yl-6-propyl-pyridin-2-ylamine] | 175 to 190 °C | 100 to 1000 nM
7 | CC(C)c1nc(N)ccc1-c1csc2ccccc12.Cl [Example 10, 5-Benzo[b]thiophen-3-yl-6-isopropyl-pyridin-2-ylamine] | > 250 °C | 100 to 1000 nM
8 | CC(C)c1nc(N)ccc1-c1cccc2ccncc12.Cl [Example 12, 6-Isopropyl-5-(8-isoquinolyl)pyridin-2-amine] | > 250 °C | 100 to 1000 nM
9 | Cl.Nc1ccc(-c2csc3ccccc23)c(C2CC2)n1 [Example 13, 5-Benzo[b]thiophen-3-yl-6-cyclopropyl-pyridin-2-ylamine] | 210 to 220 °C | 100 to 1000 nM
10 | Cl.Nc1ccc(-c2cccc3cccnc23)c(C2CC2)n1 [Example 14, 6-Cyclopropyl-5-(8-quinolyl)pyridin-2-amine] | > 250 °C | 100 to 1000 nM
11 | Cl.Nc1ccc(-c2cccc3ccncc23)c(C2CC2)n1 [Example 15, 6-Cyclopropyl-5-(8-isoquinolyl)pyridin-2-amine] | 200 to 215 °C | 100 to 1000 nM
12 | Cn1cc(-c2ccc(N)nc2N)c2ccccc21 [Example 16, 3-(1-Methylindol-3-yl)pyridine-2,6-diamine] | 47 to 55 °C | > 1000 nM
13 | CC(C)(C)OC(=O)n1cc(-c2ccc(N)nc2N)c2ccccc21 [Example 17, Tert-butyl 3-(2,6-diamino-3-pyridyl)indole-1-carboxylate] | 150 to 154 °C | > 1000 nM
14 | CCc1nc(N)ccc1-c1cccc2sccc12 [Example 78, 5-(benzo[b]thiophen-4-yl)-6-ethylpyridin-2-amine] |  | 100 to 1000 nM
15 | CCc1nc(N)ccc1-c1cccc2ccoc12 [Example 79, 5-(benzofuran-7-yl)-6-ethylpyridin-2-amine] |  | 100 to 1000 nM
16 | CCc1nc(N)ccc1-c1cccc2ccc(OCCN3CCOCC3)nc12 [Example 130, 6-ethyl-5-(2-(2-morpholinoethoxy)quinolin-8-yl)pyridin-2-amine] |  | 100 to 1000 nM
17 | CCc1nc(N)ccc1-c1cccc2ccc(C(=O)N(C)C)nc12 [Example 140, 8-(6-amino-2-ethylpyridin-3-yl)-N,N-dimethylquinoline-2-carboxamide] |  | 100 to 1000 nM
18 | CCc1nc(N)ccc1-c1c(C#N)ccc2cccnc12 [Example 153, 8-(6-amino-2-ethylpyridin-3-yl)quinoline-7-carbonitrile] |  | 100 to 1000 nM
19 | CCc1nc(N)ccc1-c1cccc2c1N(C)C(=O)CC2 [Example 157, 8-(6-amino-2-ethylpyridin-3-yl)-1-methyl-3,4-dihydroquinolin-2(1H)-one] |  | > 1000 nM
20 | CCc1nc(N)ccc1-c1cccc2ccc(C(=O)NC3COC3)nc12 [Example 175, 8-(6-amino-2-ethylpyridin-3-yl)-N-(oxetan-3-yl)quinoline-2-carboxamide] | 156 to 162 °C | 

Results, then the molecule that gave them:

Row | melting point | IC50 [1] | SMILES
21 | 120 to 140 °C | < 100 nM | CCc1nc(N)ccc1-c1ccc(F)c2cccnc12.Cl [Example 1, 6-ethyl-5-(5-fluoroquinolin-8-yl)pyridin-2-amine]
22 | > 250 °C | 100 to 1000 nM | Cc1nc(N)ccc1-c1cccc2cccnc12.Cl [Example 3, 6-Methyl-5-quinolin-8-yl-pyridin-2-ylamine]
23 | 108 to 120 °C | 100 to 1000 nM | CCc1nc(N)ccc1-c1csc2ccccc12 [Example 4, 5-Benzo[b]thiophen-3-yl-6-ethyl-pyridin-2-ylamine]
24 | > 250 °C | < 100 nM | CCc1nc(N)ccc1-c1cccc2ccncc12.Cl [Example 6, 6-Ethyl-5-(8-isoquinolyl)pyridin-2-amine]
25 | 80 to 120 °C | < 100 nM | CCCc1nc(N)ccc1-c1cccc2cccnc12.Cl [Example 8, 6-Propyl-5-(8-quinolyl)pyridin-2-amine]
26 | 100 to 117 °C | < 100 nM | CCCc1nc(N)ccc1-c1cccc2ccncc12.Cl [Example 9, 5-(8-Isoquinolyl)-6-propyl-pyridin-2-amine]
27 | > 250 °C | < 100 nM | CC(C)c1nc(N)ccc1-c1cccc2cccnc12.Cl [Example 11, 6-Isopropyl-5-(8-quinolyl)pyridin-2-amine]
28 |  | < 100 nM | Nc1ccc(-c2cccc3cccnc23)c(N)n1 [Example 31, 3-(8-quinolyl)pyridine-2,6-diamine]
29 |  | < 100 nM | Nc1ccc(-c2c(F)cc(F)c3cccnc23)c(N)n1 [Example 59, 3-(5,7-difluoroquinolin-8-yl)pyridine-2,6-diamine]
30 |  | < 100 nM | Nc1ccc(-c2c(F)ccc3cc(Cl)cnc23)c(N)n1 [Example 60, 3-(3-chloro-7-fluoroquinolin-8-yl)pyridine-2,6-diamine]
31 |  | < 100 nM | Nc1ccc(-c2c(Cl)ccc3ccc(O)nc23)c(N)n1 [Example 63, 8-(2,6-diaminopyridin-3-yl)-7-chloroquinolin-2-ol]
32 |  | < 100 nM | CCc1nc(N)ccc1-c1c(Cl)ccc2cccnc12 [Example 110, 5-(7-chloroquinolin-8-yl)-6-ethylpyridin-2-amine]
33 |  | < 100 nM | CCc1nc(N)ccc1-c1cccc2ccc(-c3ccccc3)nc12 [Example 116, 6-ethyl-5-(2-phenylquinolin-8-yl)pyridin-2-amine]
34 |  | < 100 nM | CCc1nc(N)ccc1-c1cccc2ccc(-c3cccnc3)nc12 [Example 117, 6-ethyl-5-(2-(pyridin-3-yl)quinolin-8-yl)pyridin-2-amine]
35 |  | < 100 nM | CCc1nc(N)ccc1-c1cccc2ccc(-c3cncnc3)nc12 [Example 124, 6-ethyl-5-(2-(pyrimidin-5-yl)quinolin-8-yl)pyridin-2-amine]
36 |  | < 100 nM | CCc1nc(N)ccc1-c1c(Cl)ccc2cc(F)cnc12 [Example 144, 5-(7-chloro-3-fluoroquinolin-8-yl)-6-ethylpyridin-2-amine]
37 |  | < 100 nM | CCc1nc(N)ccc1-c1c(F)ccc2cc(Cl)cnc12 [Example 146, 5-(3-chloro-7-fluoroquinolin-8-yl)-6-ethylpyridin-2-amine]
38 |  | < 100 nM | CCc1nc(N)ccc1-c1c(Cl)ccc2cc(Cl)cnc12 [Example 147, 5-(3,7-dichloroquinolin-8-yl)-6-ethylpyridin-2-amine]
39 |  | < 100 nM | CCc1nc(N)ccc1-c1c(F)cc(F)c2cc(Cl)cnc12 [Example 148, 5-(3-chloro-5,7-difluoroquinolin-8-yl)-6-ethylpyridin-2-amine]
40 |  | < 100 nM | CCc1nc(N)ccc1-c1c(F)c(F)cc2cc(Cl)cnc12 [Example 149, 5-(3-chloro-6,7-difluoroquinolin-8-yl)-6-ethylpyridin-2-amine]
41 |  | < 100 nM | CCc1nc(N)ccc1-c1c(F)ccc2cc(Br)cnc12 [Example 151, 5-(3-bromo-7-fluoroquinolin-8-yl)-6-ethylpyridin-2-amine]
42 |  | < 100 nM | CCc1nc(N)ccc1-c1c(Cl)ccc2ccc(O)nc12 [Example 160, 8-(6-amino-2-ethylpyridin-3-yl)-7-chloroquinolin-2(1H)-one]
